Assay results: patent US4276378A, “High sensitivity assays for angiotensin converting enzyme” (priority 1977, dated 1981)
Peptide text beside a SMILES is read from it. * marks the point of attachment. Bz = O=C(c1ccccc1)*

What was measured:
Guinea pig urinary ACE = molecular target: T1, Guinea pig urinary ACE (Cavia porcellus, UniProt H0UWL7); test: Sulfate and chloride effects on substrate hydrolysis (Example 3); type: biochemical; details: 37° C.
T1 sequence (H0UWL7 33-1302): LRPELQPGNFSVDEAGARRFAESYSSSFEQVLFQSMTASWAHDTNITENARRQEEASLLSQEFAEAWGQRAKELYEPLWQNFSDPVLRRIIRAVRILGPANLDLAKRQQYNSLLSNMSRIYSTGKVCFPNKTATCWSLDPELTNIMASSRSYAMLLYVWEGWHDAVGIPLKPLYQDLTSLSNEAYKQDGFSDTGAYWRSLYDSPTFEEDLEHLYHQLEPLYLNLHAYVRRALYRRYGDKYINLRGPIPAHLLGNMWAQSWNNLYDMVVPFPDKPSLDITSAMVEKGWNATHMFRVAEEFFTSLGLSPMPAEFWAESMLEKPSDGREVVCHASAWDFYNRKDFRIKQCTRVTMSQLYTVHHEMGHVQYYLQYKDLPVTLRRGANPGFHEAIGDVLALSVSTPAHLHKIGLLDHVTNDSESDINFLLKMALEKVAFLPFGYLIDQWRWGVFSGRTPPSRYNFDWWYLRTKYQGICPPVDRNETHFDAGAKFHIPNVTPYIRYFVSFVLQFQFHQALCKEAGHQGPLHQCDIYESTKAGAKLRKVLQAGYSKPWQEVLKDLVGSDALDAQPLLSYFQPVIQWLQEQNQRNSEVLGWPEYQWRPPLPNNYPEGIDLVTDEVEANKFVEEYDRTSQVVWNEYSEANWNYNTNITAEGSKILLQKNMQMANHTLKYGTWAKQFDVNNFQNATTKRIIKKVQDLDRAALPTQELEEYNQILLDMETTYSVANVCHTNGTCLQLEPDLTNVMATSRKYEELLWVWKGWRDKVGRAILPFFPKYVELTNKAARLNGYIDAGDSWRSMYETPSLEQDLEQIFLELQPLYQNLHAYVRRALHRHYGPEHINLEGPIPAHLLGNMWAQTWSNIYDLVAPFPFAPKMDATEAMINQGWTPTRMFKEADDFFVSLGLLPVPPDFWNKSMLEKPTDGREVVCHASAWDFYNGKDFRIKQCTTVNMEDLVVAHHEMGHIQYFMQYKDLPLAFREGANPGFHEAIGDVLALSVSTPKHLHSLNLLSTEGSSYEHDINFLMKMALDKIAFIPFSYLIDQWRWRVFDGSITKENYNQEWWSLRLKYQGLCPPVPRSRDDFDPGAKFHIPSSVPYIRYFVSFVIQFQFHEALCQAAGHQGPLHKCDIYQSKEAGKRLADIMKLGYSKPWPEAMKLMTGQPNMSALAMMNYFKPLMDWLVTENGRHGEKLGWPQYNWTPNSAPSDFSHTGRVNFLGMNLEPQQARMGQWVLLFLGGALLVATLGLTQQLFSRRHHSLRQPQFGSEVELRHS

ACE = test: Response of 3H-benzoylPheAlaPro hydrolysis to ions; type: biochemical
Description: An even more sensitive assay for ACE activity has been developed using the novel compound ^3 H-benzoylPheAlaPro as substrate. This new substrate can be used to assay ACE in human urine in incubations as short as 15 minutes. The response of this substrate to ions is strikingly different from the response of HipHisLeu. […] This difficulty has been solved by the proper choice of extracting solvent. While a variety of organic solvents may be suitable for the extraction step, it is preferred to employ toluene. Approximately 88% of ^3 H-benzoylPhe enters the toluene phase while only 6% of the unhydrolyzed substrate enters the toluene phase, when toluene and the acidified reaction mixtures are in approximately equal volumes at room temperature.
The enzyme is active over a broad pH range with a maximum around pH 8.0, but is at least about 50% active in the range pH 7.0-pH 8.8, for both HipHisLeu and benzoylPheAlaPro. Although the enzyme is active in a variety of buffer systems known in the art, it is preferred for convenience, when using benzoylPheAlaPro as substrate, to conduct the assays in 0.05 M Hepes buffer, pH 8.0 containing 0.15 M sodium chloride. Detailed protocols for carrying out the assay are given in the examples. […] The preferred concentration range is 1×10^-9 M to 7×10^-5 M.

SMILES: C[C@H](NC(=O)[C@H](Cc1ccccc1)NC(=O)c1ccccc1)C(=O)N1CCC[C@H]1C(=O)O [benzoylPheAlaPro, benzoyl-Phe-Ala-Pro] (Bz-Phe-Ala-Pro-OH)
- Reaction Velocity-Percent of Substrate Hydrolyzed in 10 minutes (Guinea pig urinary ACE; benzPheAlaPro, 0.05 Hepes, pH 8.0, 0.15M HCl, Na2 SO4 concentration 0): 4.4%
- Reaction Velocity-Percent of Substrate Hydrolyzed in 10 minutes (Guinea pig urinary ACE; benzPheAlaPro, 0.05 Hepes, pH 8.0, 0.15M HCl, Na2 SO4 concentration 0.1): 5.0%
- Reaction Velocity-Percent of Substrate Hydrolyzed in 10 minutes (Guinea pig urinary ACE; benzPheAlaPro, 0.05 Hepes, pH 8.0, 0.15M HCl, Na2 SO4 concentration 0.2): 4.45%
- Reaction Velocity-Percent of Substrate Hydrolyzed in 10 minutes (Guinea pig urinary ACE; benzPheAlaPro, 0.05 Hepes, pH 8.0, 0.15M HCl, Na2 SO4 concentration 0.3): 4.85%
- Reaction Velocity-Percent of Substrate Hydrolyzed in 10 minutes (Guinea pig urinary ACE; benzPheAlaPro, 0.05 Hepes, pH 8.0, 0.15M HCl, Na2 SO4 concentration 0.5): 5.6%
- effect of sodium sulfate on hydrolysis (ACE; 3H-benzoylPheAlaPro as substrate): not stimulatory
- increase of apparent reaction velocity by added sodium chloride (ACE; added sodium chloride at 0.05 M, 0.05 M Hepes buffer at pH 8.0): approximately 3 fold

SMILES: CC(C)C[C@H](NC(=O)[C@H](Cc1c[nH]cn1)NC(=O)CNC(=O)c1ccccc1)C(=O)O [HipHisLeu] (Bz-Gly-His-Leu-OH)
- Reaction Velocity-Percent of Substrate Hydrolyzed in 10 minutes (Guinea pig urinary ACE; HipHisLeu, 0.05M Hepes, pH 8.0, 0.0M NaCl, Na2 SO4 concentration 0): 0%
- Reaction Velocity-Percent of Substrate Hydrolyzed in 10 minutes (Guinea pig urinary ACE; HipHisLeu, 0.05M Hepes, pH 8.0, 0.0M NaCl, Na2 SO4 concentration 0.1): 0%
- Reaction Velocity-Percent of Substrate Hydrolyzed in 10 minutes (Guinea pig urinary ACE; HipHisLeu, 0.05M Hepes, pH 8.0, 0.0M NaCl, Na2 SO4 concentration 0.2): 0%
- Reaction Velocity-Percent of Substrate Hydrolyzed in 10 minutes (Guinea pig urinary ACE; HipHisLeu, 0.05M Hepes, pH 8.0, 0.0M NaCl, Na2 SO4 concentration 0.3): 0%
- Reaction Velocity-Percent of Substrate Hydrolyzed in 10 minutes (Guinea pig urinary ACE; HipHisLeu, 0.05M Hepes, pH 8.0, 0.0M NaCl, Na2 SO4 concentration 0.4): 0.1%
- Reaction Velocity-Percent of Substrate Hydrolyzed in 10 minutes (Guinea pig urinary ACE; HipHisLeu, 0.05M Hepes, pH 8.0, 0.0M NaCl, Na2 SO4 concentration 0.5): 0.1%
- Reaction Velocity-Percent of Substrate Hydrolyzed in 10 minutes (Guinea pig urinary ACE; HipHisLeu, 0.05M Hepes, pH 8.0, 0.0M NaCl, Na2 SO4 concentration 0.6): 0.25%
- Reaction Velocity-Percent of Substrate Hydrolyzed in 10 minutes (Guinea pig urinary ACE; HipHisLeu, 0.05M Hepes, pH 8.0, 0.0M NaCl, Na2 SO4 concentration 0.7): 0.25%
- Reaction Velocity-Percent of Substrate Hydrolyzed in 10 minutes (Guinea pig urinary ACE; HipHisLeu, 0.05M Hepes, pH 8.0, 0.0M NaCl, Na2 SO4 concentration 0.75): 0.25%
- Reaction Velocity-Percent of Substrate Hydrolyzed in 10 minutes (Guinea pig urinary ACE; HipHisLeu, 0.05M Hepes, pH 8.0, 0.0M NaCl, Na2 SO4 concentration 0.8): 0.25%
- Reaction Velocity-Percent of Substrate Hydrolyzed in 10 minutes (Guinea pig urinary ACE; HipHisLeu, 0.05M Hepes, pH 8.0, 0.0M NaCl, Na2 SO4 concentration 0.9): 0.7%
- Reaction Velocity-Percent of Substrate Hydrolyzed in 10 minutes (Guinea pig urinary ACE; HipHisLeu, 0.05M Hepes, pH 8.0, 0.0M NaCl, Na2 SO4 concentration 1.2): 3.9%
- Reaction Velocity-Percent of Substrate Hydrolyzed in 10 minutes (Guinea pig urinary ACE; HipHisLeu, 0.05M Hepes, pH 8.0, 0.1M NaCl, Na2 SO4 concentration 0): 0.3%
- Reaction Velocity-Percent of Substrate Hydrolyzed in 10 minutes (Guinea pig urinary ACE; HipHisLeu, 0.05M Hepes, pH 8.0, 0.1M NaCl, Na2 SO4 concentration 0.4): 4.1%
- Reaction Velocity-Percent of Substrate Hydrolyzed in 10 minutes (Guinea pig urinary ACE; HipHisLeu, 0.05M Hepes, pH 8.0, 0.1M NaCl, Na2 SO4 concentration 0.6): 8.3%
- Reaction Velocity-Percent of Substrate Hydrolyzed in 10 minutes (Guinea pig urinary ACE; HipHisLeu, 0.05M Hepes, pH 8.0, 0.1M NaCl, Na2 SO4 concentration 0.75): 12.05%
- Reaction Velocity-Percent of Substrate Hydrolyzed in 10 minutes (Guinea pig urinary ACE; HipHisLeu, 0.05M Hepes, pH 8.0, 0.1M NaCl, Na2 SO4 concentration 0.9): 12.25%
